Laboratory results taken from patent US20060004088A1, “Furan derivatives for preventing and curing osteoporosis and pharmaceutical compositions containing the same” (OCT INC., priority 2002, published 2006).
Entries after “also recorded” stand apart in the source; their conditions may differ.

What was measured:
[1] = tested on: osteoclast progenitor cells; test: Formation of TRAP-positive multinucleated cells from osteoclast progenitors; assay type: cell-based, mice; details: for No. of TRAP(+) multinucleated cells: M-CSF + RANKL, untreated control 132.80 ± 10.50; for number of TRAP-positive multinucleated cells in treated cultures: text summary, concentration not stated, control 132
Description: First, bone marrow cells were isolated, as follow. After sacrificing 7-9 week female mice by cervical dislocation, femur and tibia were excised aseptically while removing attached soft tissues. After cutting both ends of long bones, 1 ml of an enzyme solution, containing 0.1% collagenase (Gibco), 0.05% trypsin and 0.5 mM EDTA (Gibco), was injected to the bone marrow cavity at one end using a syringe with a 26-guage needle, and bone marrow was then collected. After shaking the recovered bone marrow for 30 min, bone marrow cells were collected, and cultured in α-minimum essential medium (α-MEM) supplemented with 10% FBS for 24 hrs. Then, non-adherent cells were collected, which are osteoclast pregenitors, aliquotted onto culture plates at a density of 2×10^5 cells per well, and cultured for 8 days in α-MEM supplemented with 20 ng/ml of macrophage-colony stimulating factor (M-CSF, Peprotech, USA) and 30 ng/ml RANKL (Peprotech, USA). During the 8 days of culturing, the cells were treated with the Compound 1. Thereafter, osteoclast formation was investigated by fixing the cultured cells and then carrying out TRAP staining, as described in the following Experimental Example 2.2. In addition, resorption activity of osteoclasts was investigated by measuring the absorption area after removing osteoclasts in cultures in calcium phosphate-coated plates, as described in Experimental Example 2.3, below.
After cell culture, the adherent cells were washed with PBS, and TRAP staining was performed, as follows. After being fixed with citrate-acetate-formaldehyde for 5 min, the cells were incubated for 1 hr in acetate buffer (prewarmed at 37° C., pH 5.0) containing naphthol AS-BI phosphate, fast Garnet GBC and 7 mM tartrate buffer (pH 5.0). TRAP-positive multinucleated cells having 3 or more nuclei were considered as osteoclasts.

[2] = tested on: osteoclast pregenitor cells; test: Inhibition rates of furan derivatives versus osteoclast formation (TRAP staining); assay type: cell-based, mice; details: TRAP-positive multinucleated cells, untreated control set as 100%
Procedure, shortened: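 Non-adherent mouse bone-marrow osteoclast precursors cultured 8 days with 20 ng/ml M-CSF and 30 ng/ml RANKL in presence of compound. TRAP-positive cells with ≥3 nuclei counted; inhibition expressed relative to untreated control set at 100%.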

MG-63 osteoblasts = test: Proliferation of MG-63 osteoblasts (3H-thymidine incorporation); assay type: cell-based, human; details: for Proliferation rate of MG-63 cells, %: 1% FBS, untreated control = 100; for proliferation rate of osteoblasts compared to a control not treated: text summary, concentration not stated
Text: In the following tests, three kinds of cell lines were used. The human osteosarcoma cell lines, MG-63 (ATCC No. CRL-1427) and HOS (ATCC No. CRL-1543), and mouse muscle C2C12 muscle cells (ATCC No. CRL-1772) were purchased from ATCC (American Type Culture Collection, Rockville, USA), and cultured in Dulbecco's modified Eagle's medium (DMEM) supplemented with 10% fetal bovine serum (FBS).
In order to indirectly evaluate cytotoxicity of the Compound 1 and investigate effect of the Compound 1 naturally extracted on obsteoblast proliferation, proliferation of MG-63 osteoblasts was investigated by measuring the amount of ^3H-thymidine incorporated into cellular DNA upon DNA replication. The cells were aliquotted onto 24-well plates at a density of 2×10^4 cells per well. The next day, after exchanging culture medium to medium containing 1% FBS, the cells were treated with the compound 1 serially diluted at various concentrations and further cultured for 48 hrs. Four hours before finishing the culture of 48 hrs, ^3H-thymidine was added to the medium in an amount of 3 μCi per well. The cells were washed with phosphate buffer, and treated with 5% trichloroacetic acid (TCA) pre-cooled on ice. Each of the separated TCA-insoluble fractions was dissolved in 0.1 M NaOH. With a portion of each fraction, ^3H-thymidine uptake by the cells was measured using a liquid scintillation counter.

[3] = tested on: ovariectomized white mice with developed osteoporosis; test: Therapeutic effect on osteoporosis, tibia histology; assay type: in vivo; details: four weeks after ovariectomy, then oral 220 μl in 30 ml water for four weeks
Description: In order to evaluate effects of the compound of the present invention on treatment and prevention of osteoporosis, female white mice with osteoporosis induced by ovariectomy were used as a disease model. After ovariectomy, mice were administered with the compound of the present invention. Tibias were dissected from the mice, and observed histologically.
In order to evaluate therapeutic effect of the Compound 1 on osteoporosis, after ovariectomy, the mice were fed with solid feedstuff for four weeks. After checking progress of osteoporosis in the mice, a test group was administered with the Compound 1 for four weeks, according to the same method as described above, while a control group was fed with only solid feedstuff. Eight weeks after ovariectomy, tibia tissue specimens were prepared according to a method known the art.
The tibia tissue specimens prepared in the Experimental Example 3-2 were fixed in a Bouin's solution for about 24 hrs. Then, the tibia tissue specimens were decalcificated with 5% nitric acid for about 60 hrs in order to remove inorganic substances including calcium from the tibias, thus softening the tibias to the degree suitable for fracture. […]

Structure (SMILES): O=Cc1ccc(CO)o1 [Compound 1, 5-hydroxymethylfuran-2-carboxyaldehyde]
- No. of TRAP(+) multinucleated cells ([1]; 10^−4 M Compound 1, 8 days): 77.20 ± 6.73
- No. of TRAP(+) multinucleated cells ([1]; 10^−5 M Compound 1, 8 days): 108.20 ± 4.57
- No. of TRAP(+) multinucleated cells ([1]; 10^−6 M Compound 1, 8 days): 103.60 ± 6.95
- No. of TRAP(+) multinucleated cells ([1]; 10^−7 M Compound 1, 8 days): 120.00 ± 6.42
- No. of TRAP(+) multinucleated cells ([1]; 10^−8 M Compound 1, 8 days): 105.20 ± 8.58
- number of TRAP-positive multinucleated cells in treated cultures [1]: 77
- number of TRAP-positive multinucleated cells in treated cultures ([1]; listed as Example 1): remarkably reduced
- Inhibition rate against osteoclast formation, % ([2]; 0.1 μM): 0%
- Inhibition rate against osteoclast formation, % ([2]; 1 μM): 0%
- Inhibition rate against osteoclast formation, % ([2]; 10 μM): 30%
- Proliferation rate of MG-63 cells, % (MG-63 osteoblasts; 10^−4 M Compound 1, 48 hrs): 105.50 ± 5.90%
- Proliferation rate of MG-63 cells, % (MG-63 osteoblasts; 10^−5 M Compound 1, 48 hrs): 102.63 ± 8.53%
- Proliferation rate of MG-63 cells, % (MG-63 osteoblasts; 10^−6 M Compound 1, 48 hrs): 105.56 ± 5.49%
- Proliferation rate of MG-63 cells, % (MG-63 osteoblasts; 10^−7 M Compound 1, 48 hrs): 103.91 ± 5.81%
- Proliferation rate of MG-63 cells, % (MG-63 osteoblasts; 10^−8 M Compound 1, 48 hrs): 101.38 ± 4.65%
- proliferation rate of osteoblasts compared to a control not treated (MG-63 osteoblasts): over 105%
- proliferation rate of osteoblasts compared to a control not treated (MG-63 osteoblasts; listed as Example 1): ≥ 105%
- trabecular bone density, histology [3]: just a slight decrease in trabecular bone density; also recorded: no trabecular bone loss
